The subject of data set [1] is Neurons originating from the cerebral hemisphere of rat fetus. As to the kind of experiment: Neurite-extension effect. Format: cell-based. The arrangement: key to Neurite-extension effect: 0: No effect; +: Faintly effective; ++: Slightly effective; +++: Effective >160%; ++++: Remarkably effective >200%. Conditions: for activity at 0.01 µM: Rattus norvegicus, Neuron, 72 h; for activity at 0.01 µM / Neurite-extension effect: 1×10^−8 M, cultured for three days, phase-contrast microscope; for neurite-extension effect as compared with bFGF (in words): summary of Table 1. The protocol: Neurons originating from the cerebral hemisphere of rat fetus (13–15 days) were used. The neurons were cultured according to a method described by Borg, J. et al. (Borg, J. et al.: Dev. Brain Res., 18: 37, 1985). Neurons in an amount of 1.5×10^5 were dispersed on a polylysine-coated dish (35 mm), and DMEM (supplemented with insulin, transferrin, progesterone, sodium selenate, and putrescine) was added thereto in an amount of 3 ml. Compound (1) of the present invention was dissolved in ethanol, and then the solution was added thereto such that the concentration became 1×10^−8 M. The neurons had been cultured for three days without the culture medium being changed. Thereafter, the neurons were fixed by use of PBS containing 2% glutaraldehyde and observed under a phase-contrast microscope.

The test system of data set [2] is transgenic mice expressing an SOD-1 mutant gene. Nature of the data set: Bar test for confirming the motor function in transgenic mice expressing the mutant SOD-1 gene. It counts as in vivo, mouse. Conditions: 8 mg/kg i.p. three times a week; measured from 80 to 91 days after birth; metallic bar 10 mm diameter, 45 cm length. As for the experimental part:
(2) Meanwhile, during the survival test (1) of the transgenic mice, bar test for confirming the motor function was conducted. In this test, the mouse to which was administered compound of Preparation 10 and control mouse were compared in the time (seconds) required for their passing over a metallic bar having the size of 10 mm in diameter and 45 cm in length. The measurement was carried out from 80 days to 91 days after birth. […] However, when compared the difference between the time at the initial date and the time at the final date, of the mouse to which was administered compound of Preparation Example 10 and of the control mouse, the ratio of the difference of the mouse to which was administered compound of Preparation Example 10 to the difference of the control mouse was about 40%.

For data set [3], the system named is transgenic mice expressing an SOD-1 mutant gene (G86R). Nature of the data set: Survival test for transgenic mice expressing an SOD-1 mutant gene. Format: in vivo, mouse. The protocol: Ten transgenic mice were subjected to the survival test. The transgenic mice employed were those in which Gly-86 in the fourth exon of a mouse SOD-1 gene is mutated to Arg (G86R) (Ripps M. E., et al.: Proc. Natl. Acad. Sci. USA. 92: 689–693, 1995). The compound of Preparation Example 10 [3-(14-hydroxytetradecyl)-4-methyl-2-cyclohexen-1-one] was dissolved in ethanol/Tween 80/physiological saline (5/2.85/92.15). The solution was intraperitoneally (i.p.) administered to five specimens at an effective dose of 2 mg/kg for 40 continuous days, and physiological saline alone was similarly administered to the other five specimens. One mouse died due to injection complication before elapse of 90 days. The other four mice died at day 150. All control animals died at about day 90. The life was prolonged by 50% or more, which has high significance.
(1) Transgenic mice expressing an SOD-1 mutant gene were subjected to the survival test in the same manner as Test Example 1 except that 8 mg/kg of compound of Preparation Example 10 was intraperitoneally administered three times a week until the mice died. […] The life was prolonged by 30% or more.
(3) Moreover, in the survival test of transgenic mice (1), onset day (i.e., the day from which mouse becomes impossible to move) was compared between the mouse to which was administered compound of Preparation Example 10 and the control mouse. As a result, for the mouse to which was administered compound of Preparation Example 10, when compared to the control mouse, a prolonged time to the onset day by […] was observed, onset day being prolonged by 20%.

By melting point is commonly meant the temperature, or range, at which the solid turns liquid. `CCCCCCCCCCC(O)C1=CC(=O)CCC1` (stereo not drawn) [Preparation Example 2, 3-(1-hydroxy-undecyl)-2-cyclohexen-1-one]: the melting point lay in the range of 34 to 35 °C.

Compound `O=C1C=C(CCCCCCCCCCCCO)CCC1` [Preparation Example 3, 3-(12-hydroxy-dodecyl)-2-cyclohexen-1-one] displayed a melting point of 35 to 36 °C.

The compound `CCCCCCCCCCCC(O)CC1=CC(=O)CCC1` (stereo not drawn) [Preparation Example 4, 3-(β-hydroxy-tridecyl)-2-cyclohexen-1-one] returned a melting point of 42 to 43 °C.

On to `O=C1C=C(CCCCCCCCCCCCCCO)CCC1` [Preparation Example 5, 3-(14-hydroxy-tetradecyl)-2-cyclohexen-1-one], for which the melting point lay within 44 to 45 °C.

`CC1CCC(=O)C=C1CCCCCCCCCCCCO` (stereo not drawn) [Preparation Example 8, 3-(12-hydroxydodecyl)-4-methyl-2-cyclohexen-1-one]: in data set [1], the activity at 0.01 µM was over 160%.

For `CCCCCCCCCCCC(O)CC1=CC(=O)CCC1C` (stereo not drawn) [Preparation Example 9, 3-(β-hydroxytridecyl)-4-methyl-2-cyclohexen-1-one], in data set [1], the activity at 0.01 µM was over 200% and the “neurite-extension effect as compared with bFGF (in words)” value is listed as “remarkably excellent”.

As for `CC1CCC(=O)C=C1CCCCCCCCCCCCCCO` (stereo not drawn) [Preparation Example 10, 3-(14-hydroxytetradecyl)-4-methyl-2-cyclohexen-1-one], the “ratio of the difference (time at initial date vs final date for passing the bar) of treated mouse to that of control mouse” value in data set [2] is “about 40%”. The prolongation of life in data set [3] (Test Example 1: 2 mg/kg i.p. for 40 continuous days, versus saline control) was at least 50%; in data set [3] (Test Example 2: 8 mg/kg i.p. three times a week, versus control), at least 30%. Further, in data set [3] (Test Example 1: 2 mg/kg i.p. for 40 continuous days, four of five mice (one died of injection complication before day 90), controls died at about day 90), the “day at which treated mice died” value stood at 150 days. In data set [3] (Test Example 1, control mice were morbid and could not act appropriately), the “activity of mice during the test” value is on record as “very active”. Also, the “survival of two of the treated mice” value in data set [3] (Test Example 2: 8 mg/kg i.p. three times a week until death) is “more than 200 days”. The “day at which treated mice died, on average” value in data set [3] (Test Example 2: 8 mg/kg i.p. three times a week until death, controls died at around day 110) was about 150 days. In addition, the “prolongation of onset day” value in data set [3] (Test Example 2: 8 mg/kg i.p. three times a week, compared to control) is 20%. The activity at 0.01 µM in data set [1] is over 200%. Besides, the “neurite-extension effect as compared with bFGF (in words)” value in data set [1] is on record as “remarkably excellent”.

Take `CC1(C)CCC(=O)C=C1CCCCCCCCCCCO` [Preparation Example 12, 3-(11-hydroxyundecyl)-4,4-dimethyl-2-cyclohexen-1-one]: in data set [1], the Neurite-extension effect entry is reported as “++”.

For `CC1(C)CCC(=O)C=C1CCCCCCCCCCCCO` [Preparation Example 13, 3-(12-hydroxydodecyl)-4,4-dimethyl-2-cyclohexen-1-one], the activity at 0.01 µM in data set [1] is over 160%.

`CCCCCCCCCCCC(O)CC1=CC(=O)CCC1(C)C` (stereo not drawn) [Preparation Example 14, 3-(β-hydroxytridecyl)-4,4-dimethyl-2-cyclohexen-1-one]: the activity at 0.01 µM in data set [1] was over 160%.

As to `CC1(C)CCC(=O)C=C1CCCCCCCCCCCCCCO` [Preparation Example 15, 3-(14-hydroxytetradecyl)-4,4-dimethyl-2-cyclohexen-1-one], the activity at 0.01 µM in data set [1] is over 160%.

Take `CC1=C(CCCCCCCCCCCCO)CCCC1=O` [Preparation Example 18, 3-(12-hydroxydodecyl)-2-methyl-2-cyclohexen-1-one]: the Neurite-extension effect result in data set [1] is “++”.

As to `CC1=C(CCCCCCCCCCCCCCO)CCCC1=O` [Preparation Example 20, 3-(14-hydroxytetradecyl)-2-methyl-2-cyclohexen-1-one], in data set [1], the activity at 0.01 µM is over 200% and the “neurite-extension effect as compared with bFGF (in words)” value is listed as “remarkably excellent”.

Take `CC1=C(CCCCCCCCCCC(C)O)C(C)(C)CCC1=O` (stereo not drawn) [Preparation Example 22, 3-(11-hydroxydodecyl)-2,4,4-trimethyl-2-cyclohexen-1-one]: the Neurite-extension effect result in data set [1] is reported as “++”.

`CC1=C(CCCCCCCCCCCCCCO)C(C)(C)CCC1=O` [Preparation Example 23, 3-(14-hydroxytetradecyl)-2,4,4-trimethyl-2-cyclohexen-1-one]: in data set [1], the activity at 0.01 µM was over 160% and the “neurite-extension effect as compared with bFGF (in words)” value is given as “remarkably excellent”.

Consider `CC1=C(CCCCCCCCCCCCCCCO)C(C)(C)CCC1=O` [Preparation Example 24, 3-(15-hydroxypentadecyl)-2,4,4-trimethyl-2-cyclohexen-1-one], for which, in data set [1], the activity at 0.01 µM is over 200% and the “neurite-extension effect as compared with bFGF (in words)” value is recorded as “remarkably excellent”.

Consider “BFGF: bFGF, comparison substance in the neurite-extension test of Table 1 [reference compound]”, for which, in data set [1], the Neurite-extension effect entry is recorded as “++”.

Source of the values: US7166642B1, “Use of cyclohexenone long-chain alcohol for treating neurodegenerative diseases” (Meiji Dairies Corporation, priority 1999, dated 2007).
